Experiments:
[1] = target: High affinity nerve growth factor receptor (Homo sapiens, UniProt P04629); assay: Inhibition of wild type TRKA (unknown origin) preincubated for 30 mins followed by ATP and U Light-poly GT addition and measured after 2 hrs by multilabel plate reader method
BaF3 [2] = assay: Antiproliferative activity against mouse BaF3 cells harbouring ETV6-TRKB wildtype assessed as cell viability measured after 72 hrs by CCK-8 method; conditions: BaF3, 72 h
BaF3 [3] = assay: cells; conditions: Mus musculus, BaF3, 72 h
BaF3 [4] = assay: cells; conditions: Mus musculus, BaF3, 72 h; remark: listed apart in the source
BaF3 [5] = assay: Antiproliferative activity against mouse BaF3 cells harbouring ETV6-TRKA wildtype assessed as cell viability measured after 72 hrs by CCK-8 method; conditions: BaF3, 72 h

Chain of High affinity nerve growth factor receptor (P04629 whole entry): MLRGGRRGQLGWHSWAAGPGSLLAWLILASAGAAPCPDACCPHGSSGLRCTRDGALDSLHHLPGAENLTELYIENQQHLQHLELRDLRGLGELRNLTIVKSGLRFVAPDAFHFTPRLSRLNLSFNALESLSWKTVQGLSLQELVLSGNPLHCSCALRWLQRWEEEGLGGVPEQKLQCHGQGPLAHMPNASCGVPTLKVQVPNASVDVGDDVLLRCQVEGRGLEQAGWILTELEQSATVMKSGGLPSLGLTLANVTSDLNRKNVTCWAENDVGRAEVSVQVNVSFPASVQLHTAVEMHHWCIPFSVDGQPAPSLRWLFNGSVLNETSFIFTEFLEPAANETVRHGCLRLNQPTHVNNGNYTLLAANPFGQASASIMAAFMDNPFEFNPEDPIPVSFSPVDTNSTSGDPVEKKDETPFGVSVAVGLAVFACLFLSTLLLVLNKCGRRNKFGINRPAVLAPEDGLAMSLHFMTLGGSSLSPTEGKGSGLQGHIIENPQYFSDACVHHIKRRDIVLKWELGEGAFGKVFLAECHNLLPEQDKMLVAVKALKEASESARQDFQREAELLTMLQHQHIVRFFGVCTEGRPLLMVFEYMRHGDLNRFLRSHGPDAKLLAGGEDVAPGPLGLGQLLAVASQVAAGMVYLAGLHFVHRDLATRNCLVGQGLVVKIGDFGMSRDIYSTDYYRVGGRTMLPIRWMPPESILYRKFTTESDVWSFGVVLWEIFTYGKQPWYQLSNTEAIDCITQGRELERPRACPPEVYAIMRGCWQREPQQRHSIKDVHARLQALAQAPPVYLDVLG

Row | Structure (SMILES) | IC50 [1] [nM] | IC50 (BaF3 [2]) [nM] | IC50 (BaF3 [3]) [nM] | IC50 (BaF3 [4]) [nM] | IC50 (BaF3 [5]) [nM]
1 | CN(C)C1CCN(c2ccc3c(Nc4n[nH]c5ccc(Cc6cc(F)cc(F)c6)cc45)n[nH]c3c2)C1 (stereo unspecified) | 1.9 |  |  |  | 
2 | O=C(Nc1cnn2ccc(N3CCC[C@@H]3c3cc(F)ccc3F)nc12)N1CC[C@H](O)C1 [LAROTRECTINIB] |  | 4.9 | 2890 | 755 | 14.6
3 | CN(C)C1CCN(c2ccc3c(Nc4n[nH]c5ccc(Cc6cc(F)cc(F)c6)cc45)ncnc3c2)C1 (stereo unspecified) | 2.3 |  |  |  | 

From ChEMBL document CHEMBL5550088, “Design, synthesis and evaluate of indazolylaminoquinazoline derivatives as potent Tropomyosin receptor kinase (TRK) inhibitors” (Bioorg Med Chem, 2024)
